ChEMBL document CHEMBL3243973, “Synthesis and antitussive activity of aminotetra- (and -hexa-) hydrodibenzofurans” (J Med Chem, 1977)

System: Cavia porcellus
Test: Toxicity in Dunkin-Hartley guinea pig assessed as effect on central nervous system at 100 mg/kg, po
Assay type: organism-based
Parameters: dose 100 mg/kg, route oral
Settings: in vivo

Compound	Activity
Cc1ccc2c(c1)[C@]1(C)CCC(=O)[C@H](NC(=O)CCN3CCN(C)CC3)[C@@H]1O2.Cl	Non-toxic

System: Cavia porcellus
Test: Antitussive activity in Dunkin-Hartley guinea pig assessed as inhibition of electrically-stimulated vagus nerve-induced cough at 100 mg/kg, po administered compound prior to electrical stimulation of vagus nerve measured at 20 to 40 mins relative to control
Assay type: functional
Settings: not given

Compound	inhibition in vivo at 100 mg/kg
CC(=O)c1cc(C)cc(C2(C)C=C(NC(=O)CCN3CCN(C)CC3)C(=O)CC2)c1O (stereo not drawn)	22%
Cc1ccc2c(c1)[C@]1(C)CC/C(=N\O)[C@H](NC(=O)CCN3CCN(C)CC3)[C@@H]1O2	55%
Cc1ccc2c(c1)[C@]1(C)C=C(NC(=O)CN3CCOCC3)C(O)C[C@@H]1O2 (stereo partly drawn)	29%
Cc1ccc2c(c1)[C@]1(C)C=C(NC(=O)CCN(C)C)C(=O)C[C@@H]1O2	58%
Cc1ccc2c(c1)[C@]1(C)CCC(=O)[C@H](NC(=O)CCN3CCCC3)[C@@H]1O2	44%
Cc1ccc2c(c1)[C@]1(C)CC/C(=N\NC(N)=O)[C@H](NC(=O)CCN3CCN(C)CC3)[C@@H]1O2	25%
Cc1cc([N+](=O)[O-])c2c(c1)[C@]1(C)CCC(=O)[C@H](NC(=O)CCN3CCN(C)CC3)[C@@H]1O2	> 80%
Cc1ccc2c(c1)[C@]1(C)CCC(=O)[C@H](NC(=O)CCN3CCN(c4ccccc4)CC3)[C@@H]1O2	54%
Cc1ccc2c(c1)[C@]1(C)CCC(=O)[C@H](NC(=O)CCN(C)CCN(C)C)[C@@H]1O2	50%
Cc1ccc2c(c1)[C@]1(C)CCC(=O)[C@H](NC(=O)CCCCN(C)C)[C@@H]1O2.Cl	> 80%
CCN(CC)CCC(=O)N[C@H]1C(=O)CC[C@@]2(C)c3cc(C)ccc3O[C@@H]12	33%
Cc1ccc2c(c1)[C@]1(C)CCC3(OCCO3)[C@H](NC(=O)CCN3CCN(C)CC3)[C@@H]1O2	11%
Cc1ccc2c(c1)[C@]1(C)CCC(=O)[C@H](NC(=O)CCOCCN(C)C)[C@@H]1O2	37%
Cc1ccc2c(c1)[C@]1(C)CCC(=O)[C@H](NC(=O)OCCN3CCN(C)CC3)[C@@H]1O2	33%
Cc1ccc2c(c1)[C@]1(C)C=C(NC(=O)CN3CCCCC3)C(=O)C[C@@H]1O2	17%
CC(=O)N1CCN(CCC(=O)N[C@H]2C(=O)CC[C@@]3(C)c4cc(C)ccc4O[C@@H]23)CC1	33%
Cc1ccc2c(c1)[C@]1(C)CCC(=O)[C@H](NC(=O)CCN3CCOCC3)[C@@H]1O2	39%
CC(=O)c1cc(C)cc2c1O[C@H]1[C@@H](NC(=O)CCN3CCN(C)CC3)C(=O)CC[C@@]21C	42%
Cc1ccc2c(c1)[C@]1(C)CCC(O)=C(C(=O)NCCN3CCN(C)CC3)[C@@H]1O2	61%
Cc1ccc2c(c1)[C@]1(C)CCC(=O)[C@H](NC(=O)CCCN3CCN(C)CC3)[C@@H]1O2	72%
Cc1ccc2c(c1)[C@]1(C)C=C(C(=O)NCCN3CCN(C)CC3)C(=O)C[C@@H]1O2	62.5%
Cc1ccc2c(c1)[C@]1(C)CCC(=O)[C@H](NC(=O)CCN3CCN(Cc4ccccc4)CC3)[C@@H]1O2	33%
CCN1CCN(CCC(=O)N[C@H]2C(=O)CC[C@@]3(C)c4cc(C)ccc4O[C@@H]23)CC1	8%

Compound	inhibition in vivo at 100 mg/kg
CC(=O)N[C@H]1C(=O)CC[C@@]2(C)c3cc(C)ccc3O[C@@H]12	25%
Cc1ccc2c(c1)[C@]1(C)CCC(=O)[C@H](NC(=O)CCN3CCNCC3)[C@@H]1O2	75%
Cc1ccc2c(c1)[C@]1(C)CCC(O)[C@H](NC(=O)CCN3CCN(C)CC3)[C@@H]1O2 (stereo partly drawn)	12%
Cc1ccc2c(c1)[C@]1(C)CCC(=O)[C@H](NC(=O)CCN3CCN(CCO)CC3)[C@@H]1O2	17%
Cc1ccc2c(c1)[C@]1(C)CCC(=O)[C@H](NC(=O)CCCN(C)C)[C@@H]1O2	67%
Cc1ccc2c(c1)[C@]1(C)CCC[C@H](NC(=O)CCN3CCN(C)CC3)[C@@H]1O2	46%
Cc1ccc2c(c1)[C@]1(C)CC(NC(=O)CCN3CCN(C)CC3)C(=O)C[C@@H]1O2 (stereo partly drawn)	12.5%
CCN(CC(=O)N[C@H]1C(=O)CC[C@@]2(C)c3cc(C)ccc3O[C@@H]12)Cc1ccccc1	9%
COc1ccc2c3c1O[C@H]1[C@@H](O)C=C[C@H]4[C@@H](C2)N(C)CC[C@@]341 [CODEINE]	> 80%
CCOC(=O)N1CCN(CCC(=O)N[C@H]2C(=O)CC[C@@]3(C)c4cc(C)ccc4O[C@@H]23)CC1	33%
Cc1ccc2c(c1)[C@]1(C)CCC(=O)[C@H](NC(=O)CCN(C)C)[C@@H]1O2	79%
Cc1ccc2c(c1)[C@]1(C)CCC(O)[C@H](NCCCN3CCN(C)CC3)[C@@H]1O2 (stereo partly drawn)	62%
Cc1ccc2c(c1)[C@]1(C)CCC(=O)[C@H](NC(=O)CCCCCN(C)C)[C@@H]1O2	25%
Cc1ccc2c(c1)[C@]1(C)C=C(NC(=O)Cn3cccc3)C(=O)C[C@@H]1O2	42%
Cc1ccc2c(c1)[C@]1(C)CCC(=O)[C@H](N)[C@@H]1O2	33%
Cc1ccc2c(c1)[C@]1(C)CCC(=O)[C@H](NC(=O)CCN3CCN(C)CC3)[C@@H]1O2.Cl	> 80%
Cc1ccc2c(c1)[C@]1(C)C=C(NC(=O)CN3CCOCC3)C(=O)C[C@@H]1O2	31%
Cc1ccc2c(c1)[C@]1(C)C=C(NC(=O)CCN3CCN(C)CC3)C(=O)C[C@@H]1O2	25%
Cc1ccc2c(c1)[C@]1(C)CCC(=O)[C@H](NC(=O)CN3CCN(C)CC3)[C@@H]1O2	43%
Cc1ccc2c(c1)[C@]1(C)C=C(NC(=O)CN(C)C)C(=O)C[C@@H]1O2	33%
Cc1ccc2c(c1)[C@]1(C)CCC(=O)[C@H](NC(=O)CN3CCCC3)[C@@H]1O2	17%
Cc1ccc2c(c1)[C@]1(C)CCC3(SCCS3)[C@H](NC(=O)CCN3CCN(C)CC3)[C@@H]1O2	46%
Cc1ccc2c(c1)[C@]1(C)CCC(=O)[C@H](NC(=O)CCN3CCCCC3)[C@@H]1O2	46%

System: Cavia porcellus
Test: Toxicity in Dunkin-Hartley guinea pig assessed as effect on cardiovascular system at 100 mg/kg, po
Assay type: organism-based
Parameters: dose 100 mg/kg, route oral
Settings: in vivo

Compound	Activity
Cc1ccc2c(c1)[C@]1(C)CCC(=O)[C@H](NC(=O)CCN3CCN(C)CC3)[C@@H]1O2.Cl	Non-toxic

System: Cavia porcellus
Test: Antitussive activity in po dosed Dunkin-Hartley guinea pig assessed as inhibition of electrically-stimulated vagus nerve-induced cough administered compound prior to electrical stimulation of vagus nerve measured at 20 to 40 mins
Assay type: functional
Settings: not given

Compound	ED50
Cc1cc([N+](=O)[O-])c2c(c1)[C@]1(C)CCC(=O)[C@H](NC(=O)CCN3CCN(C)CC3)[C@@H]1O2	34 mg/kg
Cc1ccc2c(c1)[C@]1(C)CCC(=O)[C@H](NC(=O)CCCCN(C)C)[C@@H]1O2.Cl	71 mg/kg
COc1ccc2c3c1O[C@H]1[C@@H](O)C=C[C@H]4[C@@H](C2)N(C)CC[C@@]341 [CODEINE]	38.5 mg/kg
Cc1ccc2c(c1)[C@]1(C)CCC(=O)[C@H](NC(=O)CCN3CCN(C)CC3)[C@@H]1O2.Cl	32.5 mg/kg

System: Cavia porcellus
Test: Toxicity in Dunkin-Hartley guinea pig assessed as gastrointestinal effect at 100 mg/kg, po
Assay type: organism-based
Parameters: dose 100 mg/kg, route oral
Settings: in vivo

Compound	Activity
Cc1ccc2c(c1)[C@]1(C)CCC(=O)[C@H](NC(=O)CCN3CCN(C)CC3)[C@@H]1O2.Cl	Non-toxic
